According to patent US6355799B1, “Substituted benzene compounds, process for their preparation, and herbicidal and defoliant compositions containing them” (ISK Americas Incorporated, priority 1997, dated 2002):

Tests used:
Assay type in all cases: in vivo
[1] = tested on: field corn (Zea mays L., var. Dekalb 535, CORN); assay: Post-emerge test, crop safety; details: post-emerge; for phytotoxicity rating CORN (crop damage): 14 days after application, rating scale 0-100; for Post-emerge Herbicidal Activity CORN: crop damage rating 0-100 at 14 days after application
Outline: (§1)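 Each test used a mechanized track sprayer delivering 187 l/ha of acetone solution at 15–1000 g ai/ha. Post-emerge foliage at 2–3 leaves was treated with added 0.25% v/v non-ionic surfactant and bottom-watered only. Injury was assessed on day 14, where 100 means total kill.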

[2] = tested on: upland rice (Oryza sp., var. Tebonnet, RICE); assay: Post-emerge test, crop safety; details: post-emerge; for phytotoxicity rating RICE (crop damage): 14 days after application, rating scale 0-100; for Post-emerge Herbicidal Activity RICE: crop damage rating 0-100 at 14 days after application
Outline: as §1

[3] = tested on: johnsongrass (Sorghum halepense, SORHA); assay: Pre-emerge test, greenhouse herbicide activity screening; details: for Pre-emerge Herbicidal Activity SORHA: phytotoxicity rating 0-100, 14 days after application; for Pre-emerge herbicidal activity, phytotoxicity rating SORHA: rating scale 0-100, 14 days after application
Outline: (§2)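 Plants grown in 10 cm pots of sandy loam mix received acetone-dissolved compounds through a moving flat-fan nozzle. Doses ranged from 15 to 1000 g ai/ha. Pre-emerge pots were seeded one day earlier, post-emerge pots 8–21 days earlier. Fourteen days on, each pot was graded 0–100 for damage.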

[4] = tested on: large crabgrass (Digitaria sanguinalis, DIGSA); assay: as above; details: for Pre-emerge Herbicidal Activity DIGSA: phytotoxicity rating 0-100, 14 days after application; for Pre-emerge herbicidal activity, phytotoxicity rating DIGSA: rating scale 0-100, 14 days after application
Outline: as §2

[5] = tested on: sicklepod (Cassia obtusifolia, CASOB); assay: as above; details: for Pre-emerge Herbicidal Activity CASOB: phytotoxicity rating 0-100, 14 days after application; for Pre-emerge herbicidal activity, phytotoxicity rating CASOB: rating scale 0-100, 14 days after application
Outline: as §2

[6] = tested on: velvetleaf (Abutilon theophrasti, ABUTH); assay: as above; details: for Pre-emerge Herbicidal Activity ABUTH: phytotoxicity rating 0-100, 14 days after application; for Pre-emerge herbicidal activity, phytotoxicity rating ABUTH: rating scale 0-100, 14 days after application
Outline: as §2

[7] = tested on: ivyleaf morningglory (Ipomoea hederacea, IPOHE); assay: as above; details: for Pre-emerge Herbicidal Activity IPOHE: phytotoxicity rating 0-100, 14 days after application; for Pre-emerge herbicidal activity, phytotoxicity rating IPOHE: rating scale 0-100, 14 days after application
Outline: as §2

[8] = tested on: green foxtail (Setaria viridis, SETVI); assay: as above; details: for Pre-emerge Herbicidal Activity SETVI: phytotoxicity rating 0-100, 14 days after application; for Pre-emerge herbicidal activity, phytotoxicity rating SETVI: rating scale 0-100, 14 days after application
Outline: as §2

[9] = tested on: lambsquarters (Chenopodium album, CHEAL); assay: as above; details: for Pre-emerge Herbicidal Activity CHEAL: phytotoxicity rating 0-100, 14 days after application; for Pre-emerge herbicidal activity, phytotoxicity rating CHEAL: rating scale 0-100, 14 days after application
Outline: as §2

[10] = tested on: barnyardgrass (Echinochloa crus-galli, ECHCG); assay: as above; details: for Pre-emerge Herbicidal Activity ECHCG: phytotoxicity rating 0-100, 14 days after application; for Pre-emerge herbicidal activity, phytotoxicity rating ECHCG: rating scale 0-100, 14 days after application
Outline: as §2

[11] = tested on: redroot pigweed (Amaranthus retroflexus, AMARE); assay: as above; details: for Pre-emerge Herbicidal Activity AMARE: phytotoxicity rating 0-100, 14 days after application; for Pre-emerge herbicidal activity, phytotoxicity rating AMARE: rating scale 0-100, 14 days after application
Outline: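 Sandy loam pots; pre-emerge: sown 1 d pre-spray, surface-watered after, then bottom-watered. Post-emerge: sown 8–21 d before, 2–3 leaf stage, + 0.25% v/v NIS, bottom-watered. Acetone, 187 l/ha track spray, 15–1000 g ai/ha. 0–100 injury score, day 14.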

[12] = tested on: redroot pigweed (Amaranthus retroflexus, AMARE); assay: Post-emerge test, greenhouse herbicide activity screening; details: post-emerge; for phytotoxicity rating AMARE: 14 days after application; for Post-emerge Herbicidal Activity AMARE: phytotoxicity rating 0-100 at 14 days after application
Outline: as §2

[13] = tested on: large crabgrass (Digitaria sanguinalis, DIGSA); assay: as above; details: post-emerge; for phytotoxicity rating DIGSA: 14 days after application, rating scale 0-100; for Post-emerge Herbicidal Activity DIGSA: phytotoxicity rating 0-100 at 14 days after application
Outline: as §2

[14] = tested on: sicklepod (Cassia obtusifolia, CASOB); assay: as above; details: post-emerge; for phytotoxicity rating CASOB: 14 days after application, rating scale 0-100; for Post-emerge Herbicidal Activity CASOB: phytotoxicity rating 0-100 at 14 days after application
Outline: as §2

[15] = tested on: velvetleaf (Abutilon theophrasti, ABUTH); assay: as above; details: post-emerge; for phytotoxicity rating ABUTH: 14 days after application, rating scale 0-100; for Post-emerge Herbicidal Activity ABUTH: phytotoxicity rating 0-100 at 14 days after application
Outline: as §2

[16] = tested on: ivyleaf morningglory (Ipomoea hederacea, IPOHE); assay: as above; details: post-emerge; for phytotoxicity rating IPOHE: 14 days after application, rating scale 0-100; for Post-emerge Herbicidal Activity IPOHE: phytotoxicity rating 0-100 at 14 days after application
Outline: as §2

[17] = tested on: green foxtail (Setaria viridis, SETVI); assay: as above; details: post-emerge; for phytotoxicity rating SETVI: 14 days after application, rating scale 0-100; for Post-emerge Herbicidal Activity SETVI: phytotoxicity rating 0-100 at 14 days after application
Outline: as §2

[18] = tested on: lambsquarters (Chenopodium album, CHEAL); assay: as above; details: post-emerge; for phytotoxicity rating CHEAL: 14 days after application, rating scale 0-100; for Post-emerge Herbicidal Activity CHEAL: phytotoxicity rating 0-100 at 14 days after application
Outline: as §2

[19] = tested on: barnyardgrass (Echinochloa crus-galli, ECHCG); assay: as above; details: post-emerge; for phytotoxicity rating ECHCG: 14 days after application, rating scale 0-100; for Post-emerge Herbicidal Activity ECHCG: phytotoxicity rating 0-100 at 14 days after application
Outline: as §2

[20] = tested on: field corn (Zea mays L., var. Dekalb 535, CORN); assay: Pre-emerge test, crop safety; details: for Pre-emerge Herbicidal Activity CORN: crop damage rating 0-100, 14 days after application; for Pre-emerge phytotoxicity rating, crop damage CORN: rating scale 0-100, 14 days after application
Outline: (§3)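 Compounds in acetone were track-sprayed at 187 l/ha, 15–1000 g ai/ha, onto sandy loam pots. Pre-emerge seeds were sown one day before spraying, with surface watering afterwards. Post-emerge plants were at the 2–3 leaf stage and sprayed with 0.25% v/v non-ionic surfactant. Injury was rated 0–100 at 14 days.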

[21] = tested on: upland rice (Oryza sp., var. Tebonnet, RICE); assay: Pre-emerge test, crop safety; details: for Pre-emerge Herbicidal Activity RICE: crop damage rating 0-100, 14 days after application; for Pre-emerge phytotoxicity rating, crop damage RICE: rating scale 0-100, 14 days after application
Outline: as §3

## COc1c(Cl)cc(F)c(-n2c(=O)cc(C(F)(F)F)n(C)c2=O)c1NC(=O)OCc1c(F)c(F)c(F)c(F)c1F [4-48]
[1]; 63 g ai/ha
  phytotoxicity rating CORN (crop damage): 90
[1]; 250 g ai/ha
  phytotoxicity rating CORN (crop damage): 90
[2]; 63 g ai/ha
  phytotoxicity rating RICE (crop damage): 80
[2]; 250 g ai/ha
  phytotoxicity rating RICE (crop damage): 80
[3]; 63 g ai/ha
  Pre-emerge Herbicidal Activity SORHA: 60
[3]; 250 g ai/ha
  Pre-emerge Herbicidal Activity SORHA: 90
[4]; 63 g ai/ha
  Pre-emerge Herbicidal Activity DIGSA: 100
[4]; 250 g ai/ha
  Pre-emerge Herbicidal Activity DIGSA: 100
[5]; 63 g ai/ha
  Pre-emerge Herbicidal Activity CASOB: 40
[5]; 250 g ai/ha
  Pre-emerge Herbicidal Activity CASOB: 100
[6]; 63 g ai/ha
  Pre-emerge Herbicidal Activity ABUTH: 100
[6]; 250 g ai/ha
  Pre-emerge Herbicidal Activity ABUTH: 100
[7]; 63 g ai/ha
  Pre-emerge Herbicidal Activity IPOHE: 80
[7]; 250 g ai/ha
  Pre-emerge Herbicidal Activity IPOHE: 100
[8]; 63 g ai/ha
  Pre-emerge Herbicidal Activity SETVI: 100
[8]; 250 g ai/ha
  Pre-emerge Herbicidal Activity SETVI: 100
[9]; 63 g ai/ha
  Pre-emerge Herbicidal Activity CHEAL: 100
[9]; 250 g ai/ha
  Pre-emerge Herbicidal Activity CHEAL: 100
[10]; 63 g ai/ha
  Pre-emerge Herbicidal Activity ECHCG: 50
[10]; 250 g ai/ha
  Pre-emerge Herbicidal Activity ECHCG: 70
[11]; 63 g ai/ha
  Pre-emerge Herbicidal Activity AMARE: 100
[11]; 250 g ai/ha
  Pre-emerge Herbicidal Activity AMARE: 100
[12]; 63 g ai/ha, rating scale 0-100 (0 no damage, 100 complete death)
  phytotoxicity rating AMARE: 100
[12]; 250 g ai/ha, rating scale 0-100
  phytotoxicity rating AMARE: 100
[13]; 63 g ai/ha
  phytotoxicity rating DIGSA: 20
[13]; 250 g ai/ha
  phytotoxicity rating DIGSA: 40
[14]; 63 g ai/ha
  phytotoxicity rating CASOB: 95
[14]; 250 g ai/ha
  phytotoxicity rating CASOB: 100
[15]; 63 g ai/ha
  phytotoxicity rating ABUTH: 100
[15]; 250 g ai/ha
  phytotoxicity rating ABUTH: 100
[16]; 63 g ai/ha
  phytotoxicity rating IPOHE: 100
[16]; 250 g ai/ha
  phytotoxicity rating IPOHE: 100
[17]; 63 g ai/ha
  phytotoxicity rating SETVI: 30
[17]; 250 g ai/ha
  phytotoxicity rating SETVI: 40
[18]; 63 g ai/ha
  phytotoxicity rating CHEAL: 100
[18]; 250 g ai/ha
  phytotoxicity rating CHEAL: 100
[19]; 63 g ai/ha
  phytotoxicity rating ECHCG: 20
[19]; 250 g ai/ha
  phytotoxicity rating ECHCG: 80
[20]; 63 g ai/ha
  Pre-emerge Herbicidal Activity CORN: 30
[20]; 250 g ai/ha
  Pre-emerge Herbicidal Activity CORN: 50
[21]; 63 g ai/ha
  Pre-emerge Herbicidal Activity RICE: 20
[21]; 250 g ai/ha
  Pre-emerge Herbicidal Activity RICE: 70

## COc1c(Cl)cc(F)c(N2C(=O)c3ccccc3C2=O)c1NC(=O)c1ccc(F)cc1F [13-4]
[1]; 63 g ai/ha
  Post-emerge Herbicidal Activity CORN: 5
[1]; 250 g ai/ha
  Post-emerge Herbicidal Activity CORN: 5
[2]; 63 g ai/ha
  Post-emerge Herbicidal Activity RICE: 30
[2]; 250 g ai/ha
  Post-emerge Herbicidal Activity RICE: 50
[3]; 63 g ai/ha
  Pre-emerge herbicidal activity, phytotoxicity rating SORHA: 10
[3]; 250 g ai/ha
  Pre-emerge herbicidal activity, phytotoxicity rating SORHA: 40
[4]; 63 g ai/ha
  Pre-emerge herbicidal activity, phytotoxicity rating DIGSA: 0
[4]; 250 g ai/ha
  Pre-emerge herbicidal activity, phytotoxicity rating DIGSA: 90
[5]; 63 g ai/ha
  Pre-emerge herbicidal activity, phytotoxicity rating CASOB: 0
[5]; 250 g ai/ha
  Pre-emerge herbicidal activity, phytotoxicity rating CASOB: 50
[6]; 63 g ai/ha
  Pre-emerge herbicidal activity, phytotoxicity rating ABUTH: 90
[6]; 250 g ai/ha
  Pre-emerge herbicidal activity, phytotoxicity rating ABUTH: 100
[7]; 63 g ai/ha
  Pre-emerge herbicidal activity, phytotoxicity rating IPOHE: 10
[7]; 250 g ai/ha
  Pre-emerge herbicidal activity, phytotoxicity rating IPOHE: 90
[8]; 63 g ai/ha
  Pre-emerge herbicidal activity, phytotoxicity rating SETVI: 30
[8]; 250 g ai/ha
  Pre-emerge herbicidal activity, phytotoxicity rating SETVI: 90
[9]; 63 g ai/ha
  Pre-emerge herbicidal activity, phytotoxicity rating CHEAL: 100
[9]; 250 g ai/ha
  Pre-emerge herbicidal activity, phytotoxicity rating CHEAL: 100
[10]; 63 g ai/ha
  Pre-emerge herbicidal activity, phytotoxicity rating ECHCG: 0
[10]; 250 g ai/ha
  Pre-emerge herbicidal activity, phytotoxicity rating ECHCG: 30
[11]; 63 g ai/ha
  Pre-emerge herbicidal activity, phytotoxicity rating AMARE: 60
[11]; 250 g ai/ha
  Pre-emerge herbicidal activity, phytotoxicity rating AMARE: 100
[12]; 63 g ai/ha
  Post-emerge Herbicidal Activity AMARE: 100
[12]; 250 g ai/ha
  Post-emerge Herbicidal Activity AMARE: 95
[13]; 63 g ai/ha
  Post-emerge Herbicidal Activity DIGSA: 0
[13]; 250 g ai/ha
  Post-emerge Herbicidal Activity DIGSA: 10
[14]; 63 g ai/ha
  Post-emerge Herbicidal Activity CASOB: 95
[14]; 250 g ai/ha
  Post-emerge Herbicidal Activity CASOB: 100
[15]; 63 g ai/ha
  Post-emerge Herbicidal Activity ABUTH: 100
[15]; 250 g ai/ha
  Post-emerge Herbicidal Activity ABUTH: 100
[16]; 63 g ai/ha
  Post-emerge Herbicidal Activity IPOHE: 85
[16]; 250 g ai/ha
  Post-emerge Herbicidal Activity IPOHE: 85
[17]; 63 g ai/ha
  Post-emerge Herbicidal Activity SETVI: 20
[17]; 250 g ai/ha
  Post-emerge Herbicidal Activity SETVI: 40
[18]; 63 g ai/ha
  Post-emerge Herbicidal Activity CHEAL: 95
[18]; 250 g ai/ha
  Post-emerge Herbicidal Activity CHEAL: 100
[19]; 63 g ai/ha
  Post-emerge Herbicidal Activity ECHCG: 10
[19]; 250 g ai/ha
  Post-emerge Herbicidal Activity ECHCG: 30
[20]; 63 g ai/ha
  Pre-emerge phytotoxicity rating, crop damage CORN: 0
[20]; 250 g ai/ha
  Pre-emerge phytotoxicity rating, crop damage CORN: 15
[21]; 63 g ai/ha
  Pre-emerge phytotoxicity rating, crop damage RICE: 0
[21]; 250 g ai/ha
  Pre-emerge phytotoxicity rating, crop damage RICE: 30
